Measured values as given in PubChem BioAssay AID256 (DTP/NCI, 2004).
“And” between values parts separate entries of the source, which are not always exact repeats. Identical values can stand only once. Toxic doses and inconclusive results are not listed. The calls were made as follows: active = survival T/C of 150% or more; inactive = T/C below 125% in these data.

System: CD2F1 mice, L1210 leukemia ip, survival T/C
Experiment: NCI In Vivo Anticancer Drug Screen. Data for tumor model L1210 Leukemia (intraperitoneal) in CD2F1 (CDF1) mice
Settings: higher = longer survival
Outline: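 Tumor-bearing mice (transplanted tumor) were split into treated and vehicle control groups, and the measured endpoint of each treated group was divided by that of its vehicle controls.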

[1] = endpoint: mean survival time, dose: 12.5 mg/kg/injection, schedule: Q01DX005 (ip), vehicle: distilled water + Tween-80
[2] = endpoint: mean survival time, dose: 25.0 mg/kg/injection, schedule: Q01DX005 (ip), vehicle: distilled water + Tween-80
[3] = endpoint: mean survival time, dose: 50.0 mg/kg/injection, schedule: Q01DX005 (ip), vehicle: distilled water + Tween-80
[4] = endpoint: mean survival time, dose: 100.0 mg/kg/injection, schedule: Q01DX005 (ip), vehicle: distilled water + Tween-80
[5] = endpoint: mean survival time, dose: 200.0 mg/kg/injection, schedule: Q01DX005 (ip), vehicle: distilled water + Tween-80
[6] = endpoint: mean survival time, dose: 100.0 mg/kg/injection, schedule: Q01DX001 (ip), vehicle: saline
[7] = endpoint: mean survival time, dose: 200.0 mg/kg/injection, schedule: Q01DX001 (ip), vehicle: saline
[8] = endpoint: mean survival time, dose: 400.0 mg/kg/injection, schedule: Q01DX001 (ip), vehicle: saline
[9] = endpoint: mean survival time, dose: 25.0 mg/kg/injection, schedule: Q01DX009 (ip), vehicle: water
[10] = endpoint: mean survival time, dose: 100.0 mg/kg/injection, schedule: Q01DX009 (ip), vehicle: saline with Tween-80
[11] = endpoint: mean survival time, dose: 200.0 mg/kg/injection, schedule: Q01DX009 (ip), vehicle: saline with Tween-80
[12] = endpoint: mean survival time, dose: 400.0 mg/kg/injection, schedule: Q01DX009 (ip), vehicle: saline with Tween-80
[13] = endpoint: mean survival time, dose: 100.0 mg/kg/injection, schedule: Q01DX009 (ip), vehicle: saline sonified
[14] = endpoint: mean survival time, dose: 100.0 mg/kg/injection, schedule: Q04DX003 (ip), vehicle: saline with Tween-80
[15] = endpoint: mean survival time, dose: 200.0 mg/kg/injection, schedule: Q04DX003 (ip), vehicle: saline with Tween-80
[16] = endpoint: mean survival time, dose: 400.0 mg/kg/injection, schedule: Q04DX003 (ip), vehicle: saline with Tween-80

Measured: T/C

Cc1cc(Br)ccc1[NH-].Cc1cc(Br)ccc1[NH-].[Cl][Pt+2][Cl]
inactive: endpoint: mean survival time, dose: 8.8 mg/kg/injection, schedule: Q04DX003 (ip), vehicle: saline with Tween-80 97 % of control | endpoint: mean survival time, dose: 17.5 mg/kg/injection, schedule: Q04DX003 (ip), vehicle: saline with Tween-80 97 % of control | endpoint: mean survival time, dose: 35.0 mg/kg/injection, schedule: Q04DX003 (ip), vehicle: saline with Tween-80 97 % of control | endpoint: mean survival time, dose: 70.0 mg/kg/injection, schedule: Q04DX003 (ip), vehicle: saline with Tween-80 109 % of control

Nc1ncnc2c1nc(N1CCCCC1)n2C1OC(CO)C(O)C1O (stereo not drawn)
inactive: [1] 92 % of control and 98 % of control | [2] 103 % of control and 97 % of control | [3] 99 % of control and 98 % of control | [4] 101 % of control and 100 % of control | [5] 97 % of control and 100 % of control

CCOC(=O)C(C#N)CC (stereo not drawn)
inactive: [6] 98 % of control | [7] 98 % of control | [8] 107 % of control

CN(C)CCSc1cc(O)c2c(c1O)C(=O)c1ccccc1C2=O
inactive: [9] 95 % of control | endpoint: mean survival time, dose: 50.0 mg/kg/injection, schedule: Q01DX009 (ip), vehicle: water 98 % of control | endpoint: mean survival time, dose: 100.0 mg/kg/injection, schedule: Q01DX009 (ip), vehicle: water 92 % of control | endpoint: mean survival time, dose: 200.0 mg/kg/injection, schedule: Q01DX009 (ip), vehicle: water 95 % of control

CN(/N=N/c1nc[nH]c1C(N)=O)C1CCCCC1
inactive: endpoint: mean survival time, dose: 7.8 mg/kg/injection, schedule: Q01DX009 (ip), vehicle: Klucel (hydroxypropylcellulose) (HPC) 105 % of control | endpoint: mean survival time, dose: 31.2 mg/kg/injection, schedule: Q01DX009 (ip), vehicle: Klucel (hydroxypropylcellulose) (HPC) 124 % of control | endpoint: mean survival time, dose: 125.0 mg/kg/injection, schedule: Q01DX009 (ip), vehicle: Klucel (hydroxypropylcellulose) (HPC) 122 % of control | endpoint: mean survival time, dose: 250.0 mg/kg/injection, schedule: Q01DX009 (ip), vehicle: Klucel (hydroxypropylcellulose) (HPC) 70 % of control

O=C(Nc1c(Oc2ccc(Cl)cc2)ccc(Cl)c1S(=O)(=O)O)Nc1c(Oc2ccc(Cl)c(Cl)c2)ccc(Cl)c1S(=O)(=O)O
inactive: [6] 93 % of control | [7] 88 % of control

COP1(=S)OCC2OC(n3cc(C)c(=O)[nH]c3=O)CC2O1 (stereo not drawn)
inactive: [1] 101 % of control | [2] 102 % of control | [3] 102 % of control | [4] 102 % of control | [5] 98 % of control

CC(=O)Nc1ccc(OC(=O)Nc2ccc(F)c(Cl)c2)cc1
inactive: [10] 98 % of control | [11] 93 % of control | [12] 110 % of control

CC1=C(N2CC2)C(=O)c2c(COC(N)=O)c3n(c2C1=O)C[C@H]1N[C@@H]31
inactive: endpoint: mean survival time, dose: 3.0 mg/kg/injection, schedule: Q01DX001 (ip), vehicle: distilled water + Tween-80 106 % of control | endpoint: mean survival time, dose: 6.0 mg/kg/injection, schedule: Q01DX001 (ip), vehicle: distilled water + Tween-80 118 % of control | endpoint: mean survival time, dose: 12.0 mg/kg/injection, schedule: Q01DX001 (ip), vehicle: distilled water + Tween-80 122 % of control | endpoint: mean survival time, dose: 24.0 mg/kg/injection, schedule: Q01DX001 (ip), vehicle: distilled water + Tween-80 120 % of control

CCCC(=O)NNC(=O)c1ccccn1
inactive: [13] 109 % of control | [14] 101 % of control | [15] 104 % of control | [16] 106 % of control

C[As](C)SCC1OC(n2ccc(=O)[nH]c2=O)CC1O (stereo not drawn)
inactive: endpoint: median survival time, dose: 12.5 mg/kg/injection, schedule: Q01DX005 (ip), vehicle: distilled water + Tween-80 97 % of control | endpoint: median survival time, dose: 25.0 mg/kg/injection, schedule: Q01DX005 (ip), vehicle: distilled water + Tween-80 104 % of control | endpoint: median survival time, dose: 50.0 mg/kg/injection, schedule: Q01DX005 (ip), vehicle: distilled water + Tween-80 106 % of control | endpoint: median survival time, dose: 100.0 mg/kg/injection, schedule: Q01DX005 (ip), vehicle: distilled water + Tween-80 109 % of control

CCCCCCCC/C=C\CCCCCCCC(=O)NCCCN(C)CCCNC(=O)CCCCCCC/C=C/CCCCCCCC
inactive: endpoint: mean survival time, dose: 75.0 mg/kg/injection, schedule: Q01DX001 (ip), vehicle: other 100 % of control | endpoint: mean survival time, dose: 150.0 mg/kg/injection, schedule: Q01DX001 (ip), vehicle: other 104 % of control | endpoint: mean survival time, dose: 300.0 mg/kg/injection, schedule: Q01DX001 (ip), vehicle: other 100 % of control

CC(C)=NNC(=O)CC(=O)NN=C(C)C
inactive: [13] 100 % of control | endpoint: mean survival time, dose: 180.0 mg/kg/injection, schedule: Q01DX009 (ip), vehicle: saline with Tween-80 100 % of control | endpoint: mean survival time, dose: 200.0 mg/kg/injection, schedule: Q01DX009 (ip), vehicle: saline sonified 102 % of control | endpoint: mean survival time, dose: 266.0 mg/kg/injection, schedule: Q01DX009 (ip), vehicle: saline with Tween-80 100 % of control | [12] 110 % of control | endpoint: mean survival time, dose: 600.0 mg/kg/injection, schedule: Q01DX009 (ip), vehicle: saline with Tween-80 122 % of control

CN(C)c1ccccc1C1=CCCCC1
inactive: endpoint: mean survival time, dose: 50.0 mg/kg/injection, schedule: Q04DX003 (ip), vehicle: saline 96 % of control | endpoint: mean survival time, dose: 100.0 mg/kg/injection, schedule: Q04DX003 (ip), vehicle: saline 98 % of control | endpoint: mean survival time, dose: 200.0 mg/kg/injection, schedule: Q04DX003 (ip), vehicle: saline 104 % of control

CNC(=O)ON=C(c1ccccc1)c1ccccc1
inactive: [6] 98 % of control | [7] 104 % of control | [8] 102 % of control

CCOC(=O)Nc1cc2c(c(N)n1)N=C(c1ccc(Cl)cc1Cl)CN2
inactive: endpoint: median survival time, dose: 3.12 mg/kg/injection, schedule: Q01DX009 (ip), vehicle: saline with Tween-80 106 % of control | endpoint: median survival time, dose: 6.25 mg/kg/injection, schedule: Q01DX009 (ip), vehicle: saline with Tween-80 112 % of control | endpoint: median survival time, dose: 12.5 mg/kg/injection, schedule: Q01DX009 (ip), vehicle: saline with Tween-80 114 % of control

Clc1ccccc1/C=C1/c2ccccc2-c2nc3ccccc3cc21
inactive: [10] 97 % of control | [14] 89 % of control | [11] 105 % of control | [15] 100 % of control | [12] 102 % of control | [16] 95 % of control

CC(=O)N1CCCCC1C/C(C)=N/O (stereo not drawn)
inactive: [14] 105 % of control | [15] 95 % of control | [16] 109 % of control

Cn1c2nc(=O)n(-c3ccccc3)c(=O)c-2nc2c1CCCC2
inactive: endpoint: mean survival time, dose: 3.12 mg/kg/injection, schedule: Q01DX009 (ip), vehicle: saline with Tween-80 100 % of control | endpoint: mean survival time, dose: 6.25 mg/kg/injection, schedule: Q01DX009 (ip), vehicle: saline with Tween-80 100 % of control | endpoint: mean survival time, dose: 12.5 mg/kg/injection, schedule: Q01DX009 (ip), vehicle: saline with Tween-80 98 % of control | endpoint: mean survival time, dose: 25.0 mg/kg/injection, schedule: Q01DX009 (ip), vehicle: saline with Tween-80 101 % of control | endpoint: mean survival time, dose: 50.0 mg/kg/injection, schedule: Q01DX009 (ip), vehicle: saline with Tween-80 100 % of control | [10] 106 % of control

Cn1c2nc3ccccc3c-2nc2ccccc21
inactive: endpoint: mean survival time, dose: 1.56 mg/kg/injection, schedule: Q01DX009 (ip), vehicle: water 100 % of control | endpoint: mean survival time, dose: 3.13 mg/kg/injection, schedule: Q01DX009 (ip), vehicle: water 93 % of control | endpoint: mean survival time, dose: 6.25 mg/kg/injection, schedule: Q01DX009 (ip), vehicle: water 88 % of control | endpoint: mean survival time, dose: 12.5 mg/kg/injection, schedule: Q01DX009 (ip), vehicle: water 89 % of control | endpoint: mean survival time, dose: 25.0 mg/kg/injection, schedule: Q01DX009 (ip), vehicle: Klucel (hydroxypropylcellulose) (HPC) 101 % of control | [9] 86 % of control and 89 % of control | endpoint: mean survival time, dose: 50.0 mg/kg/injection, schedule: Q01DX009 (ip), vehicle: Klucel (hydroxypropylcellulose) (HPC) 103 % of control | endpoint: mean survival time, dose: 100.0 mg/kg/injection, schedule: Q01DX009 (ip), vehicle: Klucel (hydroxypropylcellulose) (HPC) 105 % of control | endpoint: mean survival time, dose: 200.0 mg/kg/injection, schedule: Q01DX009 (ip), vehicle: Klucel (hydroxypropylcellulose) (HPC) 95 % of control

CCCCCCCCC(C)c1cccc(C(C)CCCCCCCC)c1O (stereo not drawn)
inactive: endpoint: mean survival time, dose: 200.0 mg/kg/injection, schedule: Q01DX001 (ip), vehicle: saline with Tween-80 103 % of control | endpoint: mean survival time, dose: 400.0 mg/kg/injection, schedule: Q01DX001 (ip), vehicle: saline with Tween-80 103 % of control

CCCCCCCCCN=C(N)CSSCC(N)=NCCCCCCCCC
inactive: endpoint: mean survival time, dose: 12.5 mg/kg/injection, schedule: Q01DX001 (ip), vehicle: Klucel (hydroxypropylcellulose) (HPC) 94 % of control | endpoint: mean survival time, dose: 25.0 mg/kg/injection, schedule: Q01DX001 (ip), vehicle: Klucel (hydroxypropylcellulose) (HPC) 101 % of control
